Source: PubChem BioAssay AID1963961 (Molecular Pharmacology Branch, DTP, NCI, 2024)
pIC50: −log10 of the molar value.

System: K98450-129-R-PDC multicell spheroids, viability
Test: Anticancer human tumor K98450-129-R-PDC patient-derived colon adenocarcinoma cell line growth inhibition [PI3K]
Details: for pIC50: curve of first compound; for viability, T/C: stronger effect = lower value
Procedure, shortened: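 Combination activity was assessed by viability in multicellular tumor spheroids carrying HUVEC and MSC components. Agents were tested with PI3K inhibitors from a Cmax-based top dose (or 10 microM) downward in half-log increments.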
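Note: spheroids exposed to agents for seven days before read-out.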

- pIC50 (second compound 0.00316 µM): < 5.00
- pIC50 (second compound 0.01 µM): < 5.00
- pIC50 (second compound 0.0316 µM): < 5.00
- pIC50 (second compound 0.1 µM): < 5.00
- pIC50 (second compound 0.316 µM): < 5.00
- pIC50 (second compound 1 µM): < 5.00
SMILES: CC(Cn1ccc(-c2ccc(C#N)c(Cl)c2)n1)NC(=O)c1cc(C(C)O)[nH]n1 (configuration not stated) + CC(Nc1ccc2c(c1)OCCn1cc(N3C(=O)OCC3C(F)F)nc1-2)C(N)=O
- viability, T/C (second compound 0.00316 µM, first compound 0.0316 µM): 111%
- viability, T/C (second compound 0.00316 µM, first compound 0.1 µM): 99.6%
- viability, T/C (second compound 0.00316 µM, first compound 0.316 µM): 105%
- viability, T/C (second compound 0.00316 µM, first compound 1 µM): 101%
- viability, T/C (second compound 0.00316 µM, first compound 3.16 µM): 105%
- viability, T/C (second compound 0.00316 µM, first compound 10 µM): 106%
- viability, T/C (second compound 0.01 µM, first compound 0.0316 µM): 113%
- viability, T/C (second compound 0.01 µM, first compound 0.1 µM): 98.6%
- viability, T/C (second compound 0.01 µM, first compound 0.316 µM): 102%
- viability, T/C (second compound 0.01 µM, first compound 1 µM): 98.4%
- viability, T/C (second compound 0.01 µM, first compound 3.16 µM): 101%
- viability, T/C (second compound 0.01 µM, first compound 10 µM): 111%
- viability, T/C (second compound 0.0316 µM, first compound 0.0316 µM): 102%
- viability, T/C (second compound 0.0316 µM, first compound 0.1 µM): 109%
- viability, T/C (second compound 0.0316 µM, first compound 0.316 µM): 101%
- viability, T/C (second compound 0.0316 µM, first compound 1 µM): 96.2%
- viability, T/C (second compound 0.0316 µM, first compound 3.16 µM): 101%
- viability, T/C (second compound 0.0316 µM, first compound 10 µM): 102%
- viability, T/C (second compound 0.1 µM, first compound 0.0316 µM): 98.2%
- viability, T/C (second compound 0.1 µM, first compound 0.1 µM): 100%
- viability, T/C (second compound 0.1 µM, first compound 0.316 µM): 103%
- viability, T/C (second compound 0.1 µM, first compound 1 µM): 95.2%
- viability, T/C (second compound 0.1 µM, first compound 3.16 µM): 109%
- viability, T/C (second compound 0.1 µM, first compound 10 µM): 95%
- viability, T/C (second compound 0.316 µM, first compound 0.0316 µM): 92.6%
- viability, T/C (second compound 0.316 µM, first compound 0.1 µM): 98%
- viability, T/C (second compound 0.316 µM, first compound 0.316 µM): 97.7%
- viability, T/C (second compound 0.316 µM, first compound 1 µM): 94.1%
- viability, T/C (second compound 0.316 µM, first compound 3.16 µM): 104%
- viability, T/C (second compound 0.316 µM, first compound 10 µM): 91.9%
- viability, T/C (second compound 1 µM, first compound 0.0316 µM): 87.7%
- viability, T/C (second compound 1 µM, first compound 0.1 µM): 91.6%
- viability, T/C (second compound 1 µM, first compound 0.316 µM): 91.7%
- viability, T/C (second compound 1 µM, first compound 1 µM): 86.2%
- viability, T/C (second compound 1 µM, first compound 3.16 µM): 90.4%
- viability, T/C (second compound 1 µM, first compound 10 µM): 92.3%
